Source: ChEMBL document CHEMBL3853261 (Medchemcomm, 2016)
≈ marks a conversion by molar mass, not a printed value. Calls of active or inactive are those of the source. No cut-off for these calls is given here.

How the values were obtained:
[1] = Hemolytic activity in human erythrocytes after 1 hr; assay type: ADME, cell-based, Erythrocyte; conditions: read-out: Activity
[2] = tested on: Mycobacterium tuberculosis; experiment: Antibacterial activity against Mycobacterium tuberculosis MTCC 300 after 7 days by resazurin microtiter assay; assay type: functional; conditions: for MIC: MTCC 300, 168 h

SMILES | hemolysis at 1 h [1] [%] | MIC [2] [µg/mL] | growth inhibition (GI) [2]
NC(=S)N/N=C1\CSC(n2nc(-c3cn(-c4ccccc4)nc3-c3ccc(Br)cc3)c(O)c2-c2ccc(Cl)cc2)=N1 | < 5 | – | –
NC(=S)N/N=C1\CSC(n2nc(-c3cn(-c4ccccc4)nc3-c3ccc(Br)cc3)c(O)c2-c2ccc(Br)cc2)=N1 | < 5 | – | –
NC(=S)N/N=C1\CSC(n2nc(-c3cn(-c4ccccc4)nc3-c3ccc([N+](=O)[O-])cc3)c(O)c2-c2ccc([N+](=O)[O-])cc2)=N1 | < 5 | 62.5 (≈ 97.6 µM) | –
NC(=S)N/N=C1\CSC(n2nc(-c3cn(-c4ccccc4)nc3-c3cccc([N+](=O)[O-])c3)c(O)c2-c2ccc(F)cc2)=N1 | < 5 | – | –
NC(=S)N/N=C1\CSC(n2nc(-c3cn(-c4ccccc4)nc3-c3ccc([N+](=O)[O-])cc3)c(O)c2-c2ccc(Cl)cc2)=N1 | < 5 | – | Active
NC(=S)N/N=C1\CSC(n2nc(-c3cn(-c4ccccc4)nc3-c3cccc([N+](=O)[O-])c3)c(O)c2-c2cccc([N+](=O)[O-])c2)=N1 | < 5 | 3.9 (≈ 6.09 µM) | –
NC(=S)N/N=C1\CSC(n2nc(-c3cn(-c4ccccc4)nc3-c3cccc([N+](=O)[O-])c3)c(O)c2-c2ccc([N+](=O)[O-])cc2)=N1 | < 5 | 3.9 (≈ 6.09 µM) | –
NC(=S)N/N=C1\CSC(n2nc(-c3cn(-c4ccccc4)nc3-c3ccc(Br)cc3)c(O)c2-c2ccc(F)cc2)=N1 | < 5 | – | –
CO[C@H]1/C=C/O[C@@]2(C)Oc3c(C)c(O)c4c(O)c(c(/C=N/N5CCN(C)CC5)c(O)c4c3C2=O)NC(=O)/C(C)=C\C=C\[C@H](C)[C@H](O)[C@@H](C)[C@@H](O)[C@@H](C)[C@H](OC(C)=O)[C@@H]1C [RIFAMPIN] | – | 0.24 (≈ 0.292 µM) | –
NC(=S)N/N=C1\CSC(n2nc(-c3cn(-c4ccccc4)nc3-c3cccc([N+](=O)[O-])c3)c(O)c2-c2ccc(Cl)cc2)=N1 | < 5 | 62.5 (≈ 99.2 µM) | –
NC(=S)N/N=C1\CSC(n2nc(-c3cn(-c4ccccc4)nc3-c3ccc(Br)cc3)c(O)c2-c2cccc([N+](=O)[O-])c2)=N1 | < 5 | – | –
NC(=S)N/N=C1\CSC(n2nc(-c3cn(-c4ccccc4)nc3-c3ccc(Br)cc3)c(O)c2-c2ccc([N+](=O)[O-])cc2)=N1 | < 5 | – | –
NC(=S)N/N=C1\CSC(n2nc(-c3cn(-c4ccccc4)nc3-c3ccc(Cl)cc3)c(O)c2-c2ccc(Cl)cc2)=N1 | < 5 | 62.5 (≈ 101 µM) | –
NC(=S)N/N=C1\CSC(n2nc(-c3cn(-c4ccccc4)nc3-c3ccccc3)c(O)c2-c2ccccc2)=N1 | < 5 | – | Active
NC(=S)N/N=C1\CSC(n2nc(-c3cn(-c4ccccc4)nc3-c3ccc(Cl)cc3)c(O)c2-c2ccc(F)cc2)=N1 | < 5 | – | Active
NC(=S)N/N=C1\CSC(n2nc(-c3cn(-c4ccccc4)nc3-c3ccc(Cl)cc3)c(O)c2-c2ccc([N+](=O)[O-])cc2)=N1 | < 5 | – | Active
NC(=S)N/N=C1\CSC(n2nc(-c3cn(-c4ccccc4)nc3-c3ccc([N+](=O)[O-])cc3)c(O)c2-c2ccc(F)cc2)=N1 | < 5 | – | Active
NC(=S)N/N=C1\CSC(n2nc(-c3cn(-c4ccccc4)nc3-c3ccc(Cl)cc3)c(O)c2-c2ccccc2)=N1 | < 5 | – | Active
NC(=S)N/N=C1\CSC(n2nc(-c3cn(-c4ccccc4)nc3-c3ccc([N+](=O)[O-])cc3)c(O)c2-c2cccc([N+](=O)[O-])c2)=N1 | < 5 | 7.81 (≈ 12.2 µM) | –
NNC(=O)c1ccncc1 [ISONIAZID] | – | 0.48 (≈ 3.5 µM) | –
